We go through 1 substance from patent publication US11154591B2, “Methods of treating alcohol abuse disorder” (THE TRUSTEES OF COLUMBIA UNIVERSITY IN THE CITY OF NEW YORK, priority 2016, dated 2021).

Assay [1] deals with C57BL/6J mice. Briefly: Free-choice 10% ethanol/water drinking, Example 1. The format is in vivo. The text has this:
Animals (C57BL/6J mice) were offered two options for drinking water, one bottle with pure water, and the other bottle containing a 10% ethanol/water mix, both of which were available “free choice” from Day 1 of the experiment. […] In this experiment, as the mice became accustomed to the 10% ethanol mix offered, they began to drink more and more of the ethanol mix, so that when their liquid consumption was plotted as a ratio of 10% ethanol/water, the ratio quickly became greater than 1 (more 10% ethanol than pure water). The mice were allowed to establish a baseline consumption pattern, and after 30 Days, 5 cages consistently consumed more of the ethanol mix than pure water.
Beginning on Day 33, three cages were treated with Spexin at 25 micrograms/kg/day in 1×PBS; via IP injection (cages 1, 4, and 10). Mice were administered the 14 amino acid Spexin peptide with carboxy terminal amidation: Asn-Trp-Thr-Pro-Gln-Ala-Met-Leu-Tyr-Leu-Lys-Gly-Ala-Gln-NH2 (SEQ ID NO: 4; available from Phoenix Pharmaceuticals, Catalog No. 023-81). The other two cages (2 and 7) were injected with an equal volume of vehicle according to the same schedule. Animals were injected for 5 days (Days 33 through 37), then given two days off (Days 38 and 39), then injected again with Spexin for two more days (days 40 and 41). […]

Assay [2] has as its system male C57BL/6J mice. Briefly: Free-choice 10% ethanol vs water intake, Example 2. The format is in vivo. Here is the method: To test this hypothesis, 5 groups of 5 male C57BL/6J mice (25 total) were housed for 40 days in plastic cages with 2 water bottles each: one containing water and the other 10% ethanol in water (10% ethanol). Fluids were available “free choice”, and intake from each bottle was recorded daily.
Over the 1st week, 10% ethanol and water were consumed at a mean ratio of 0.80±0.32:1.0. Intake of 10% ethanol then increased, plateauing at a 10% ethanol:water ratio of 2.0±0.17:1.0 by Days 22-30. This was assigned a value of 100% as baseline for the subsequent studies. Starting on Day 31, 15 mice were injected with Spexin in 1×PBS 25 μg/kg in PBS i.p. daily for 3 days. Mice were administered the 14 amino acid Spexin peptide with carboxy terminal amidation: Asn-Trp-Thr-Pro-Gln-Ala-Met-Leu-Tyr-Leu-Lys-Gly-Ala-Gln-NH2 (SEQ ID NO: 4; available from Phoenix Pharmaceuticals, Catalog No. 023-81). The other 10 mice were injected with 1×PBS (vehicle) alone.

The subject of assay [3] is rat stomach explant. The note with it: cited from earlier work.
Assay [4] deals with obese (DIO) mice. The note with it: injected into obese (DIO) mice; cited from earlier work.

As for “Asn-Trp-Thr-Pro-Gln-Ala-Met-Leu-Tyr-Leu-Lys-Gly-Ala-Gln-NH2 [Spexin]”, the “ratio of 10% ethanol/water consumption” value in assay [1] (25 micrograms/kg/day IP in 1xPBS, Days 33-37 and 40-41, cages 1, 4 and 10) was “dropped in all three cages”; in assay [1] (25 micrograms/kg/day IP, cages 4 and 10), “below 1”. Further, the “10% ethanol:water ratio, % of baseline” value in assay [2] (25 μg/kg i.p. daily, 1st day of Spexin administration, baseline ratio 2.0:1.0 = 100%) worked out at 80.7%; in assay [2] (25 μg/kg i.p. daily, 2nd day of Spexin administration), 42.4%; in assay [2] (25 μg/kg i.p. daily, 3rd day of Spexin administration), 42.4%; in assay [2] (1st day post-Spexin), 100%; in assay [2] (2nd day post-Spexin), 136%. The ethanol intake entry in assay [2] (daily spexin injections, free choice) is recorded as “rapidly & significantly reduce ethanol intake”. Moreover, the contractile effects entry in assay [3] was “demonstrates contractile effects”. Also, the weight loss result in assay [4] is “produces weight loss”.
